ChEMBL document CHEMBL3885881, “DrugMatrix”

Species: Rattus norvegicus
Experiment: DrugMatrix - Regimen: Daily Repeat
Type: toxicity, organism-based, Sprague-Dawley
Set-up: regimen Daily Repeat, gender Male, age 6-8 weeks
Conditions: in vivo, po, route oral GAVAGE, vehicle .5 % CMC; for ABSOLUTE BASOPHIL / ABSOLUTE EOSINOPHIL / ABSOLUTE LYMPHOCYTE / ABSOLUTE MONOCYTE / ABSOLUTE SEGMENTED NEUTROPHIL / BASOPHIL / EOSINOPHIL / ERYTHROCYTE COUNT / HEMATOCRIT / HEMOGLOBIN / LEUKOCYTE COUNT / LYMPHOCYTE / MEAN CORPUSCULAR HEMOGLOBIN / MEAN CORPUSCULAR HEMOGLOBIN CONCENTRATION / MEAN CORPUSCULAR VOLUME / MONOCYTE / NEUTROPHIL / NUCLEATED RED BLOOD CELLS / PLATELET COUNT: tissue Blood; for ALANINE AMINOTRANSFERASE / ALBUMIN / ALKALINE PHOSPHATASE / ASPARTATE AMINOTRANSFERASE / BLOOD UREA NITROGEN / CARBON DIOXIDE / CHLORIDE / CHOLESTEROL / CREATINE PHOSPHOKINASE / CREATININE / GLUCOSE / LACTATE DEHYDROGENASE / LIPASE / PHOSPHORUS / POTASSIUM / SODIUM / TOTAL BILIRUBIN / TOTAL PROTEIN / URIC ACID: tissue Plasma
[1] = 385.5 mg/kg, 120 h, dose level Low, time 5 day
[2] = 3855 mg/kg, 72 h, dose level High, time 3 day
[3] = 3855 mg/kg, 120 h, dose level High, time 5 day

## Cn1c(=O)c2c(ncn2CC(O)CO)n(C)c1=O (centres undefined) [DYPHYLLINE]
[1]
  ABSOLUTE BASOPHIL: 0 CELLS/uL
  ABSOLUTE EOSINOPHIL: 0 CELLS/uL
  ABSOLUTE LYMPHOCYTE: 14849.33 CELLS/uL
  ABSOLUTE MONOCYTE: 268.33 CELLS/uL
  ABSOLUTE SEGMENTED NEUTROPHIL: 1249 CELLS/uL
  BASOPHIL: 0%
  EOSINOPHIL: 0%
  ERYTHROCYTE COUNT: 5.2 x10E6/uL
  HEMATOCRIT: 34.47%
  HEMOGLOBIN: 13.7 G/DL
  LEUKOCYTE COUNT: 16.37 x10E3/uL
  LYMPHOCYTE: 90.67%
  MEAN CORPUSCULAR HEMOGLOBIN: 26.37 pg
  MEAN CORPUSCULAR HEMOGLOBIN CONCENTRATION: 39.77 G/DL
  MEAN CORPUSCULAR VOLUME: 66.3 fL
  MONOCYTE: 1.67%
  NEUTROPHIL: 7.67%
  NUCLEATED RED BLOOD CELLS: 0.33 /100WBC
  PLATELET COUNT: 1326 x10E3/uL
  ALANINE AMINOTRANSFERASE: 46.67 u/L
  ALBUMIN: 4.3 G/DL
  ALKALINE PHOSPHATASE: 287 u/L
  ASPARTATE AMINOTRANSFERASE: 70.67 u/L
  BLOOD UREA NITROGEN: 18.67 mg/dL
  CARBON DIOXIDE: 25.33 mmol/L
  CHLORIDE: 102.67 MEQ/L
  CHOLESTEROL: 75.33 mg/dL
  CREATINE PHOSPHOKINASE: 172.67 u/L
  CREATININE: 0.18 mg/dL
  GLUCOSE: 155 mg/dL
  LACTATE DEHYDROGENASE: 103.33 u/L
  LIPASE: 10 u/L
  PHOSPHORUS: 13.33 mg/dL
  POTASSIUM: 6.61 MEQ/L
  SODIUM: 146.27 MEQ/L
  TOTAL BILIRUBIN: 0.2 mg/dL
  TOTAL PROTEIN: 5.93 G/DL
  URIC ACID: 1.33 mg/dL
[2]
  ABSOLUTE BASOPHIL: 0 CELLS/uL
  ABSOLUTE EOSINOPHIL: 0 CELLS/uL
  ABSOLUTE LYMPHOCYTE: 16214.67 CELLS/uL
  ABSOLUTE MONOCYTE: 399.33 CELLS/uL
  ABSOLUTE SEGMENTED NEUTROPHIL: 2086 CELLS/uL
  BASOPHIL: 0%
  EOSINOPHIL: 0%
  ERYTHROCYTE COUNT: 5.33 x10E6/uL
  HEMATOCRIT: 33.37%
  HEMOGLOBIN: 13.57 G/DL
  LEUKOCYTE COUNT: 18.7 x10E3/uL
  LYMPHOCYTE: 87%
  MEAN CORPUSCULAR HEMOGLOBIN: 25.5 pg
  MEAN CORPUSCULAR HEMOGLOBIN CONCENTRATION: 40.67 G/DL
  MEAN CORPUSCULAR VOLUME: 62.63 fL
  MONOCYTE: 2%
  NEUTROPHIL: 11%
  NUCLEATED RED BLOOD CELLS: 0 /100WBC
  PLATELET COUNT: 1235.67 x10E3/uL
  ALANINE AMINOTRANSFERASE: 63.67 u/L
  ALBUMIN: 4.37 G/DL
  ALKALINE PHOSPHATASE: 376 u/L
  ASPARTATE AMINOTRANSFERASE: 102 u/L
  BLOOD UREA NITROGEN: 14 mg/dL
  CARBON DIOXIDE: 25.67 mmol/L
  CHLORIDE: 103.33 MEQ/L
  CHOLESTEROL: 72 mg/dL
  CREATINE PHOSPHOKINASE: 224.33 u/L
  CREATININE: 0.18 mg/dL
  GLUCOSE: 169.33 mg/dL
  LACTATE DEHYDROGENASE: 157.67 u/L
  LIPASE: 10 u/L
  PHOSPHORUS: 11.3 mg/dL
  POTASSIUM: 6.13 MEQ/L
  SODIUM: 145.4 MEQ/L
  TOTAL BILIRUBIN: 0.17 mg/dL
  TOTAL PROTEIN: 5.77 G/DL
  URIC ACID: 1.27 mg/dL
[3]
  ABSOLUTE BASOPHIL: 0 CELLS/uL
  ABSOLUTE EOSINOPHIL: 169.33 CELLS/uL
  ABSOLUTE LYMPHOCYTE: 15268 CELLS/uL
  ABSOLUTE MONOCYTE: 115.33 CELLS/uL
  ABSOLUTE SEGMENTED NEUTROPHIL: 1780.67 CELLS/uL
  BASOPHIL: 0%
  EOSINOPHIL: 1%
  ERYTHROCYTE COUNT: 5.34 x10E6/uL
  HEMATOCRIT: 34.57%
  HEMOGLOBIN: 13.7 G/DL
  LEUKOCYTE COUNT: 17.33 x10E3/uL
  LYMPHOCYTE: 88%
  MEAN CORPUSCULAR HEMOGLOBIN: 25.67 pg
  MEAN CORPUSCULAR HEMOGLOBIN CONCENTRATION: 39.63 G/DL
  MEAN CORPUSCULAR VOLUME: 64.77 fL
  MONOCYTE: 0.67%
  NEUTROPHIL: 10.33%
  NUCLEATED RED BLOOD CELLS: 0.33 /100WBC
  PLATELET COUNT: 1356 x10E3/uL
  ALANINE AMINOTRANSFERASE: 67.33 u/L
  ALBUMIN: 4.23 G/DL
  ALKALINE PHOSPHATASE: 246 u/L
  ASPARTATE AMINOTRANSFERASE: 85.67 u/L
  BLOOD UREA NITROGEN: 17 mg/dL
  CARBON DIOXIDE: 26.33 mmol/L
  CHLORIDE: 102.33 MEQ/L
  CHOLESTEROL: 58.67 mg/dL
  CREATINE PHOSPHOKINASE: 184.33 u/L
  CREATININE: 0.16 mg/dL
  GLUCOSE: 150.67 mg/dL
  LACTATE DEHYDROGENASE: 98.67 u/L
  LIPASE: 10 u/L
  PHOSPHORUS: 11.47 mg/dL
  POTASSIUM: 6.42 MEQ/L
  SODIUM: 144.77 MEQ/L
  TOTAL BILIRUBIN: 0.2 mg/dL
  TOTAL PROTEIN: 5.77 G/DL
  URIC ACID: 1 mg/dL
